This assay concerns the target T1, human c-Src (Homo sapiens, UniProt P12931).
T1 construct: purchased Panvera/Invitrogen
Put plainly: Src kinase inhibition, luciferase-based residual ATP (KinaseGlo). The note with it: recombinant human c-Src, ATP 3 μM, PTK2 substrate, 90 minutes at room temperature. It is filed as biochemical. Here is the method:
The ability of compounds of the present invention to inhibit the activity of three groups of kinases was tested. Kinases tested included the src family (primarily src and yes), the angiogenic growth factors receptors (FGFR1, PDGFRb and VEGFR2) and the ephrin, EphB4. All kinase reactions were conducted in 96-well plates with a final reaction volume of 50 ul.
Recombinant human c-Src or Yes (28 ng/well, Panvera/Invitrogen, Madison Wis.), ATP (3 μM), a tyrosine kinase substrate (PTK2, 250 μM, Promega Corp., Madison Wis.), and test agents (at concentrations ranging from about 1 nM/l to about 100 μM/1), in the presence of Src kinase reaction buffer (Upstate USA, Lake Placid N.Y.). After reacting for about 90 minutes at room temperature, residual ATP was determined using a luciferase-based assay (KinaseGlo, Promega Corp.) as a measure of kinase activity. Data from four wells were then averaged and used to determine IC50 values for the test compounds (Prism software package, GraphPad Software, San Diego Calif.).
Background: In Kinase-Glo more light means more ATP remaining.
T1 sequence (P12931 whole entry): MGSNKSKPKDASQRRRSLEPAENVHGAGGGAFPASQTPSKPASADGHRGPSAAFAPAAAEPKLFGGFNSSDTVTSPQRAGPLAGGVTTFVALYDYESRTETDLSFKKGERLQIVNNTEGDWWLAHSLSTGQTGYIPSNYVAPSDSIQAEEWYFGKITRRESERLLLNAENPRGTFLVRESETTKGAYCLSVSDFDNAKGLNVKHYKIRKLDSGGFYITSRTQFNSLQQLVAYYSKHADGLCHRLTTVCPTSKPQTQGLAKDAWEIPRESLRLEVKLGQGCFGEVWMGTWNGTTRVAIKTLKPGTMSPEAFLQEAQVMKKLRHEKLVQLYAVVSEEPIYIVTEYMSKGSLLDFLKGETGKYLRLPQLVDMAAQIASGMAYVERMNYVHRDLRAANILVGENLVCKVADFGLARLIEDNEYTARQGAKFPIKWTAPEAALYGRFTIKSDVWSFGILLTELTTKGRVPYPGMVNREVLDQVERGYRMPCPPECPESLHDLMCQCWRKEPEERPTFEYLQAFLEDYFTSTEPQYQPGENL
`O=C(NCCN1CCCC1)c1ccc(Nc2ncc(NC(=O)c3ccc(O)cc3Cl)cn2)cc1`: the IC50 stood at 85 nM.

Regarding `COc1ccc(Cl)c(C(=O)Nc2cnc(Nc3ccc(S(=O)(=O)CCCN4CCCC4)cc3)nc2)c1` [Compound 53, 2-Chloro-5-methoxy-N-{2-[4-(3-pyrrolidin-1-yl-propane-1-sulfonyl)-phenylamino]-pyrimidin-5-yl}-benzamide], the IC50 came out at 8000 nM.

For `Cc1cccc(C)c1C(=O)Nc1cnc(Nc2cccc(S(=O)(=O)NCCN(C)C)c2)nc1` [I, N-{2-[3-(2-Dimethylamino-ethylsulfamoyl)-phenylamino]-Pyrimidin-5-yl}-2,6-dimethyl-benzamide], the 50% inhibitory concentration (IC50) amounted to 288 nM.

Regarding `O=C(Nc1cnc(Nc2ccc(C(=O)N3CCN(CCO)CC3)nc2)nc1)c1c(Cl)cccc1Cl` [II, 2,6-Dichloro-N-(2-{6-[4-(2-hydroxy-ethyl)-piperazine-1-carbonyl]-pyridin-3-ylamino}-pyrimidin-5-yl)-benzamide], the IC50 came out at 400 nM.

Consider `O=C(Nc1cnc(Nc2ccc(S(=O)(=O)NCCN3CCCC3)cc2)nc1)c1c(Cl)cccc1Cl` [III, 2,6-Dichloro-N-{2-[4-(2-pyrrolidin-1-yl-ethylsulfamoyl)-phenylamino]-pyrimidin-5-yl}-benzamide], for which the IC50 came out at 73 nM.

On to `CN(CCN1CCCC1)S(=O)(=O)c1ccc(Nc2ncc(NC(=O)c3c(Cl)cccc3Cl)cn2)cc1` [IV, 2,6-Dichloro-N-(2-[4-[methyl-(2-pyrrolidin-1-yl-ethyl)-sulfamoyl]-phenylamino]-pyrimidin-5-yl)-benzamide], for which the IC50 was determined as 2100 nM.

`O=C(NCCN1CCCC1)c1ccc(Nc2ncc(NC(=O)c3cc(O)ccc3Cl)cn2)cn1` [IX, 5-[5-(2-Chloro-5-hydroxy-benzoylamino)-pyrimidin-2-ylamino]-Pyridine-2-carboxylic acid (2-pyrrolidin-1-yl-ethyl)-amide]: the IC50 is 13 nM.

Take `Cc1cccc(C)c1C(=O)Nc1cnc(Nc2ccc(C(=O)N3CCNCC3)cc2)nc1` [L, 2,6-Dimethyl-N-{2-[4-(piperazine-1-carbonyl)-phenylamino]-pyrimidin-5-yl}-benzamide]: the IC50 was determined as 183 nM.

Turning to `O=C(Nc1cnc(Nc2ccc(C(=O)N3CCNCC3)cc2)nc1)c1cc(O)ccc1Cl` [LI, 2-Chloro-5-hydroxy-N-{2-[4-(piperazine-1-carbonyl)-phenylamino]-Pyrimidin-5-yl}-benzamide], the concentration for half-maximal inhibition (IC50) was 12 nM.

Consider `Clc1cccc(Cl)c1CNc1cnc(Nc2cccc(OCCN3CCCC3)c2)nc1` [LII, N′-(2,6-Dichloro-benzyl)-N-[3-(2-pyrrolidin-1-yl-ethoxy)-phenyl]-pyrimidine-2,5-diamine], for which the IC50 is 60 nM.

Turning to `Cc1nc(Nc2ncc(NC(=O)c3c(Cl)cccc3Cl)cn2)cc(N2CCN(CCO)CC2)n1` [LIII, 2,6-Dichloro-N-(2-{6-[4-(2-hydroxy-ethyl)-piperazin-1-yl]-2-methyl-pyrimidin-4-ylamino}-pyrimidin-5-yl)-benzamide], the IC50 came to 3000 nM.

Take `CN1CCN(S(=O)(=O)c2ccc(Nc3ncc(NC(=O)c4c(Cl)cccc4Cl)cn3)cc2)CC1` [V, 2,6-Dichloro-N-{2-[4-(4-methyl-piperazine-1-sulfonyl)-phenylamino]-pyrimidin-5-yl}-benzamide]: the IC50 came out at 667 nM.

For the molecule `Cc1cccc(C)c1C(=O)Nc1cnc(Nc2ccc(S(=O)(=O)NCCN3CCCC3)cc2)nc1` [VI, 2,6-Dimethyl-N-{2-[4-(2-pyrrolidin-1-yl-ethylsulfamoyl)-phenylamino]-pyrimidin-5-yl}-benzamide], the IC50 turned out to be 90 nM.

For `O=C(Nc1cnc(Nc2ccc(S(=O)(=O)NCCN3CCCC3)cc2)nc1)c1cc(O)ccc1Cl` [VII, 2-Chloro-5-hydroxy-N-{2-[4-(2-pyrrolidin-1-yl-ethylsulfamoyl)-phenylamino]-pyrimidin-5-yl}-benzamide], the concentration for half-maximal inhibition (IC50) amounted to 13 nM.

On to `O=C(NCCN1CCCC1)c1ccc(Nc2ncc(NC(=O)c3c(Cl)cccc3Cl)cn2)cn1` [VIII, 5-[5-(2,6-Dichloro-benzoylamino)-pyrimidin-2-ylamino]-pyridine-2-carboxylic acid (2-pyrrolidin-1-yl-ethyl)-amide], for which the IC50 is 129 nM.

Regarding `O=C(Nc1cnc(Nc2cccnc2)nc1)c1c(Cl)cccc1Cl` [X, 2,6-Dichloro-N-[2-(pyridin-3-ylamino)-pyrimidin-5-yl]-benzamide], the IC50 is 300 nM.

As to `O=C(Nc1cnc(Nc2cccnc2)nc1)c1cc(O)ccc1Cl` [XI, Chloro-5-hydroxy-N-[2-(pyridin-3-ylamino)-pyrimidin-5-yl]-benzamide], the IC50 is 43 nM.

On to `CN1CCN(C(=O)c2ccc(Nc3ncc(NC(=O)c4c(Cl)cccc4Cl)cn3)cc2)CC1` [XIV, 2,6-Dichloro-N-{2-[4-(4-methyl-piperazine-1-carbonyl)-phenylamino]-pyrimidin-5-yl}-benzamide], for which the IC50 worked out at 94 nM.

`CC(C)N(CCO)C(=O)c1cccc(Nc2ncc(NC(=O)c3c(Cl)cccc3Cl)cn2)c1` [XIX, 2,6-Dichloro-N-(2-{3-[(2-hydroxy-ethyl)-isopropyl-carbamoyl]-phenylamino}-pyrimidin-5-yl)-benzamide]: the IC50 came to 25 nM.

Turning to `Oc1ccc(Cl)c(CNc2cnc(Nc3ccc(OCCN4CCCC4)cc3)nc2)c1` [XLI, 3-((2-(4-(2-(Pyrrolidin-1-yl)ethoxy)phenylamino)pyrimidin-5-ylamino)methyl)-4-chlorophenol], the half-inhibitory concentration (IC50) was found to be 55 nM.

On to `O=C(Nc1cnc(Nc2cccc(OCCN3CCCC3)c2)nc1)c1cc(O)ccc1Cl` [XLII, N-(2-(3-(2-(Pyrrolidin-1-yl)ethoxy)phenylamino)pyrimidin-5-yl)-2-chloro-5-hydroxybenzamide], for which the IC50 came out at 21 nM.

Consider `Cc1cccc(C)c1C(=O)Nc1cnc(Nc2cccc(OCCN3CCCC3)c2)nc1` [XLIII, N-(2-(3-(2-(Pyrrolidin-1-yl)ethoxy)phenylamino)pyrimidin-5-yl)-2,6-dimethylbenzamide], for which the IC50 stood at 99 nM.

For the molecule `O=C(Nc1cnc(Nc2cccc(OCCN3CCCC3)c2)nc1)c1c(Cl)cccc1Cl` [XLIV, N-(2-(3-(2-(Pyrrolidin-1-yl)ethoxy)phenylamino)pyrimidin-5-yl)-2,6-dichlorobenzamide], the IC50 stood at 25 nM.

For the molecule `O=C(Nc1cnc(Nc2ccc(N3CCN(CCO)CC3)nc2)nc1)c1c(Cl)cccc1Cl` [XLIX, 2,6-Dichloro-N-(2-{6-[4-(2-hydroxy-ethyl)-piperazin-1-yl]-pyridin-3-ylamino}-pyrimidin-5-yl)-benzamide], the IC50 amounted to 54 nM.

Turning to `O=C(Nc1cnc(Nc2ccc(S(=O)(=O)N3CCNCC3)cc2)nc1)c1cc(O)ccc1Cl` [XLVII, 2-Chloro-5-hydroxy-N-{2-[4-(piperazine-1-sulfonyl)-phenylamino]-Pyrimidin-5-yl}-benzamide], the IC50 worked out at 38 nM.

Regarding `O=C(Nc1cnc(Nc2ccc(C(=O)N3CCN(CCO)CC3)nc2)nc1)c1cc(O)ccc1Cl` [XLVIII, 2-Chloro-5-hydroxy-N-(2-{6-[4-(2-hydroxy-ethyl)-piperazine-1-carbonyl]-pyridin-3-ylamino}-pyrimidin-5-yl)-benzamide], the IC50 was 53 nM.

For `Cc1cccc(C)c1C(=O)Nc1cnc(Nc2ccc(C(=O)N3CCN(C)CC3)cc2)nc1` [XV, 2,6-Dimethyl-N-{2-[4-(4-methyl-piperazine-1-carbonyl)-phenylamino]-pyrimidin-5-yl}-benzamide], the IC50 worked out at 223 nM.

As for `CN1CCN(C(=O)c2ccc(Nc3ncc(NC(=O)c4cc(O)ccc4Cl)cn3)cc2)CC1` [XVI, 2-Chloro-5-hydroxy-N-{2-[4-(4-methyl-piperazine-1-carbonyl)-phenylamino]-pyrimidin-5-yl}-benzamide], the IC50 was 21 nM.

As for `Cc1c(O)cccc1C(=O)Nc1cnc(Nc2ccc(C(=O)N3CCN(C)CC3)cc2)nc1` [XVII, 2-Methyl-3-hydroxy-N-{2-[4-(4-methyl-piperazine-1-carbonyl)-phenylamino]-pyrimidin-5-yl}-benzamide], the IC50 is 550 nM.

Regarding `O=C(NCCN1CCCC1)c1csc(Nc2ncc(NC(=O)c3cc(O)ccc3Cl)cn2)n1` [XVIII, 2-[5-(2-Chloro-5-hydroxy-benzoylamino)-pyrimidin-2-ylamino]-thiazole-4-carboxylic acid (2-pyrrolidin-1-yl-ethyl)-amide], the IC50 amounted to 20 nM.

Consider `CC(C)N(CCO)C(=O)c1cccc(Nc2ncc(NC(=O)c3cc(O)ccc3Cl)cn2)c1` [XX, 2-Chloro-5-hydroxy-N-(2-{3-[(2-hydroxy-ethyl)-isopropyl-carbamoyl]-phenylamino}-pyrimidin-5-yl)-benzamide], for which the IC50 is 19 nM.

In the case of `CC(C)N(CCO)C(=O)c1ccc(Nc2ncc(NC(=O)c3c(Cl)cccc3Cl)cn2)cc1` [XXI, 2,6-Dichloro-N-(2-{4-[(2-hydroxy-ethyl)-isopropyl-carbamoyl]-phenylamino}-pyrimidin-5-yl)-benzamide], the IC50 is 286 nM.

Turning to `CC(C)N(CCO)C(=O)c1ccc(Nc2ncc(NC(=O)c3cc(O)ccc3Cl)cn2)cc1` [XXII, 2-Chloro-5-hydroxy-N-(2-{4-[(2-hydroxy-ethyl)-isopropyl-carbamoyl]-phenylamino}-pyrimidin-5-yl)-benzamide], the IC50 amounted to 43 nM.

As for `O=C(NCCN1CCCC1)c1ccc(Nc2ncc(NC(=O)c3cc(O)ccc3Br)cn2)cc1` [XXIII, 2-Bromo-5-hydroxy-N-{2-[4-(2-pyrrolidin-1-yl-ethylcarbamoyl)-phenylamino]-pyrimidin-5-yl}-benzamide], the 50% inhibitory concentration (IC50) came to 13 nM.

For the molecule `Cc1cccc(C)c1C(=O)Nc1cnc(Nc2ccc(C(=O)NCCN3CCCC3)cc2)nc1` [XXIX, 2,6-Dimethyl-N-{2-[4-(2-pyrrolidin-1-yl-ethylcarbamoyl)-phenylamino]-pyrimidin-5-yl}-benzamide], the IC50 is 117 nM.

One may read the IC50 as the midpoint of a concentration-inhibition curve.
